Source: US20130143830A1, “AGENTS FOR COMBATING AND REDUCING THE IRRITATING ACTION OF SURFACTANTS IN COMPOSITIONS TO BE APPLIED TO THE SKIN FOR CARE OR CLEANSING OF THE FACE AND BODY” (GIULIANI S.P.A, priority 2008, published 2013)

Assays:
[1] = test system: EPISKIN model of reconstructed human epidermis; assay: MTT cell viability test on EPISKIN model (in vitro skin irritation); type: cell-based
Description: 2.1.1 EPISKIN™ model (EPISKIN-SM™), EPISKIN SNC Lyon, France, is a model of reconstructed human epidermis. The human keratinocytes are seeded on a dermal substitute consisting of a collagen type I matrix coated with type IV collagen. A highly differentiated and stratified epidermis model is obtained after a 13-day culture period comprising the basal, suprabasal, spinous and granular layers and a functional stratum corneum (Tinois et al., 1984). The model is used in the skin irritation applying the substances being examined at topical level to the epidermis and subsequently assessing cell viability.
10 μl of the solutions were applied to the surface of the epidermis for 15 minutes, followed by 42 hours of recovery.
VitroScreen is implementing a quality system in compliance with the GLP regulations (2004/9/CE and 2004/10/CE) in preparation of the GLP Audit and relative certification. The methods utilized in the study were entered in the list of VitroScreen methods. Following a validation study coordinated by ECVAM the Episkin test system was validated by the ESAC (27/04/07); this uses a model of epidermis reconstructed in vitro—EPISKIN—to assess skin irritation produced by chemical substances for hazard identification and R38 classification: cell viability is quantified after 15 min of exposure +42 h of recovery. Quantification of IL-1α with the ELISA method is part of the validated method for skin irritation as it allows the substances to be distinguished even when there is no decrease in cell viability.
The MTT test is considered an international standard for quantification of cytotoxicity (ISO 10993-5). The method allows quantification of the cytotoxic effect produced by the product through measuring cell viability. Cytotoxicity is quantified by measuring the decrease in cell viability compared to an untreated negative control. It is based on the metabolizing reaction which takes place between the salt of tetrazolium (MTT) and the mitochondrial enzymes (succinate dehydrogenase) after contact with the product for the various treatment times: only the viable cell can transform the salt of tetrazolium into the insoluble derivative (Formazan), reaction which is highlighted by the formation of a purple color at the bottom of the insert.
Metabolization of the salt takes place at the level of the basal cells of the epithelium in the area above the polycarbonate support.
The purple colored derivative is extracted in isopropanol and quantified spectrophotometrically at 570 nm.
At the end of treatment and post-incubation with the substances being examined, the EPISKIN models are transferred to 12 well plates, filled with 2 ml of MTT (used at the concentration of 0.3 mg/ml in the assay medium) and the test is conducted for 3 hours at 37° C., 5% CO2, 90% humidity.
The formazan is extracted from the tissue in Eppendorf tubes with 500 μl of acidified isopropanol (0.04 N HCL final concentration) with incubation in the dark under stirring for 4 hours at room temperature.
10 μl of the substances being examined, of the positive (SDS 5%) and negative (sterile water) control are applied to the surface of the epidermis.
The treated tissues are maintained at room temperature for 15 minutes (±0.5 minutes).
At the end of incubation the tissues are washed 2-3 times with PBS and placed in an incubator with fresh maintenance medium for 42 hours of recovery.
The TEER is measured post-treatment and the MTT test is then conducted for 3 hours at 37° C. and formazan is subsequently extracted for 4 hours as described in the methods.
At the end of the test 2×200 μl of sample for each well are transferred to 96 well plates and read spectrophotometrically at 570 nm.
The optical densities are recorded directly by the Microplate autoreader (TECAN INFINITE M-200), exported to Excel files and the cell viability % is calculated compared to the optical density of the negative control. […]

[2] = pH of the prepared solutions; type: physicochemical; settings: positive control solution
Description: The solutions are prepared and the pH is measured.

SMILES	irritation classification by predictive model ([1]; MAG at 2%)	cytotoxic effects ([1]; MAG at 2%, 15 min exposure + 42 h recovery)	irritation classification by predictive model ([1]; MAG at 2%, listed as Mono-Ammonium Glycyrrhizate)	irritation classification by predictive model ([1]; MAG at 5%)	loss of viability ([1]; MAG at 5%, 15 min exposure + 42 h recovery) [%]	irritation classification by predictive model ([1]; MAG at 5%, listed as Mono-Ammonium Glycyrrhizate)	pH [2]	reduction in viability ([1]; SDS 5%, 10 μl, 15 min exposure + 42 h recovery, vs negative control) [%]	irritation classification by predictive model ([1]; solution as tested, 15 min exposure + 42 h recovery, cut-off 50% viability, sulfate)
CC1(C)[C@@H](O[C@H]2O[C@H](C(=O)O)[C@@H](O)[C@H](O)[C@H]2O[C@@H]2O[C@H](C(=O)O)[C@@H](O)[C@H](O)[C@H]2O)CC[C@]2(C)[C@H]3C(=O)C=C4[C@@H]5C[C@@](C)(C(=O)O)CC[C@]5(C)CC[C@@]4(C)[C@]3(C)CC[C@@H]12.N [MAG, monoammonium glycyrrhizinate]	non-irritant	no cytotoxic effects	NON IRRITANT (NI)	non-irritant	20	NON IRRITANT (NI)	–	–	–
CCCCCCCCCCCCOS(=O)(=O)[O-].[Na+] [SDS 5%, sodium dodecyl sulfate, reference compound]	–	–	–	–	–	–	5.80	80	R38 irritant
